These results are taken from patent publication US20230073777A1, “CYCLIC-AMP RESPONSE ELEMENT BINDING PROTEIN (CBP) AND/OR ADENOVIRAL E1A BINDING PROTEIN OF 300 KDA (P300) DEGRADATION COMPOUNDS AND METHODS OF USE” (CULLGEN (SHANGHAI), INC., priority 2019, published 2023).

The term IC50 denotes the concentration at which inhibition is half-maximal. Read a high IC50 as weaker potency in that assay.

Experiment [1] has as its target P300 (Homo sapiens, UniProt Q09472). The experiment in a line: Immunoblotting of P300 protein levels in LNCaP or 22RV1 cells. Type of experiment: cell-based. The following applies: percentage of inhibition of p300 at 10 nM (Table 2); read-out: Degradation (10 nM). More on the design: LNCaP or 22RV1 cells that express CBP/P300 proteins were treated with GNE-781 or the bivalent compounds; endogenous in cells; host or cells: LNCaP (clone FGC) or 22RV1 cells. Here is the method:
Specific exemplary bivalent compounds were characterized in LNCaP or 22RV1 cells. LNCaP or 22RV1 cells that express CBP/P300 proteins were treated with GNE-781 or the bivalent compounds disclosed herein (P-001 to P-174) for indicated hours. Cells were collected, lysed and subject to immunoblotting using an antibody specific to P300 or CBP proteins. Tubulin or vinculin was included as the loading control. DMSO was used as the negative control.
Cultured cells or tissue chunks were washed with cold PBS once and lysed in cold RIPA buffer supplemented with protease inhibitors and phosphatase inhibitors (Beyotime Biotechnology). The solutions were then incubated at 4° C. for 30 minutes with gentle agitation to fully lyse cells. Cell lysates were centrifuged at 13,000 rpm for 10 minutes at 4° C. and pellets were discarded. Total protein concentrations in the lysates were determined by BCA assays (Beyotime Biotechnology). Cell lysates were mixed with Laemmli loading buffer to 1× and heated at 99° C. for 5 min. Proteins were resolved on SDS-PAGE and visualized by chemiluminescence. Images were taken by a ChemiDoc MP Imaging system (Bio-Rad). Protein bands were quantitated using the accompanied software provided by Bio-Rad.
(In western blotting, separated proteins are transferred to a membrane and probed.)

Experiment [2] concerns LNCaP cells. The experiment in a line: LNCaP cell viability assay (CellTiter-Glo). Type of experiment: cell-based. The following applies: for IC50: Homo sapiens, 72 h, LNCaP prostate cancer cell viability inhibition, 3 days, CellTiter-Glo (Table 2). In short, it runs like this: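 LNCaP cells, 5000/well, exposed to compounds in 12-point 3-fold serial dilution (top 10 μM) for 3 days. Viability by CellTiter-Glo luminescence, normalized to untreated cells; IC50 by least-squares nonlinear regression.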

Some results are limits rather than exact numbers.

Chain of P300 (Q09472 whole entry): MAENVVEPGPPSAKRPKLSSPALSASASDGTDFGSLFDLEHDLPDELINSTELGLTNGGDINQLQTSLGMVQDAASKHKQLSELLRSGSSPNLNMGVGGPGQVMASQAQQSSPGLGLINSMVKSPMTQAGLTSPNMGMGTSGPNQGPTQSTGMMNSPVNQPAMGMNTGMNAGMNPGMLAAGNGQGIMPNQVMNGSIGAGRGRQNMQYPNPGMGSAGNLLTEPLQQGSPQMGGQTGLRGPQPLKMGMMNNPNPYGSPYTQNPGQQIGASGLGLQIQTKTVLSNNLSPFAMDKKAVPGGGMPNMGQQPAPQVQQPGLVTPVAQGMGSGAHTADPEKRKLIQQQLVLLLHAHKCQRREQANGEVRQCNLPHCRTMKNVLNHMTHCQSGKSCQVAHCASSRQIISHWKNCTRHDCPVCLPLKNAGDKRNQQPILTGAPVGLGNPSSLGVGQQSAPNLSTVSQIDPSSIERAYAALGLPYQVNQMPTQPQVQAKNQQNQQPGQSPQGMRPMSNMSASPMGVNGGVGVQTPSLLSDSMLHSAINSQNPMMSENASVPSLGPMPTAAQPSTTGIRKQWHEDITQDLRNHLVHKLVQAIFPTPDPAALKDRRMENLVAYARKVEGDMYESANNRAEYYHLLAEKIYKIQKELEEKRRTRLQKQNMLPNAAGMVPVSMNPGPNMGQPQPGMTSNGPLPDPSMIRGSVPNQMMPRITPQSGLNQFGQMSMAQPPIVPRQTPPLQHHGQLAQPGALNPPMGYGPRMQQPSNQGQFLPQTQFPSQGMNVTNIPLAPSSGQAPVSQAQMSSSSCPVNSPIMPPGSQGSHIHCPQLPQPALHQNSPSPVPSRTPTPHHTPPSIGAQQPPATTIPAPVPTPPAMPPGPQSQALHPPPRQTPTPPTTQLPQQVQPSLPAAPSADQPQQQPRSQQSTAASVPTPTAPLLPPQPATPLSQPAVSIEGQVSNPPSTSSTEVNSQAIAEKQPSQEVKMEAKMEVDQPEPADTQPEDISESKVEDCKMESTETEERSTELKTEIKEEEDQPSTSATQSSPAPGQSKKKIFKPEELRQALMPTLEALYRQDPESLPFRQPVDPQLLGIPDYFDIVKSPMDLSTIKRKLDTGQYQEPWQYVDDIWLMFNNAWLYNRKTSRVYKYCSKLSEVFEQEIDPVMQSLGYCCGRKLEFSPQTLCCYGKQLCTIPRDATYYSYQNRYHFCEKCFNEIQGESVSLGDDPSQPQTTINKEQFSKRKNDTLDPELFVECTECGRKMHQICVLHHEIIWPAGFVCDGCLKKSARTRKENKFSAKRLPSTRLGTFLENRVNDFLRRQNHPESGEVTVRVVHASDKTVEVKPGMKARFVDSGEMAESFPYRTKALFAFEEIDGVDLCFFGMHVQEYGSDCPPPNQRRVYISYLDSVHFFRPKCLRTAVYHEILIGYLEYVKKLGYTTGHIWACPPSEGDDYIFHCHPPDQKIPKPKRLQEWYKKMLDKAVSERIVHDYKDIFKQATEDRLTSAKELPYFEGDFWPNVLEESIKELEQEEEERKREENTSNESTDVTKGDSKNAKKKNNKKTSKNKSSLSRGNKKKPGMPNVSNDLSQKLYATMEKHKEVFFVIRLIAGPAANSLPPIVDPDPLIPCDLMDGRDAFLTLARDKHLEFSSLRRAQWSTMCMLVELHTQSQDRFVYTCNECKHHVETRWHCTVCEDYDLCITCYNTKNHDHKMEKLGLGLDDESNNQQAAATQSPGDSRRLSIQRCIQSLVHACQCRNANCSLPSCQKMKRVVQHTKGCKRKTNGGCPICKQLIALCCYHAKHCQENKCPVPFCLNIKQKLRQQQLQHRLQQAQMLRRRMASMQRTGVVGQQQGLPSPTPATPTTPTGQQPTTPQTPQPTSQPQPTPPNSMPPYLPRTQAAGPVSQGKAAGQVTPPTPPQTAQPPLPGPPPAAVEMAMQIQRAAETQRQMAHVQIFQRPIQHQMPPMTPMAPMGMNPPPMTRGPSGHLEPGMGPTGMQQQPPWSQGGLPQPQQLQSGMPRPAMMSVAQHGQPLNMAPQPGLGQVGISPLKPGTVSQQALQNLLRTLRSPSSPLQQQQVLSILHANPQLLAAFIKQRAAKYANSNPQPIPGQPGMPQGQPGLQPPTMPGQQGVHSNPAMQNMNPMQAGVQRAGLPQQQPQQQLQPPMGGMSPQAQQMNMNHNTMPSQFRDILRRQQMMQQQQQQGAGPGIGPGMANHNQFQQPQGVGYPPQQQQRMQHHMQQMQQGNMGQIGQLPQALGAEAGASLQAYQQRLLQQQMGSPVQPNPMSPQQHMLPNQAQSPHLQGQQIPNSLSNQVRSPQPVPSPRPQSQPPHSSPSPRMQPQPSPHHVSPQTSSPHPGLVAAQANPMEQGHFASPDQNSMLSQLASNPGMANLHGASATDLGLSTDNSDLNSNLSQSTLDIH

With `CNC(=O)N1CCc2c(c(N3CCCc4cc(-c5cnn(CC(=O)NCCNc6ccc7c(c6)C(=O)N(C6CCC(=O)NC6=O)C7=O)c5)c(C(F)F)cc43)nn2C2CCOCC2)C1` (stereo not shown) [P-016, 3-(7-(Difluoromethyl)-6-(1-(2-((2-((2-(2,6-dioxopiperidin-3-yl)-1,3-dioxoisoindolin-5-yl)amino)ethyl)amino)-2-oxoethyl)-1H-pyrazol-4-yl)-3,4-dihydroquinolin-1(2H)-yl)-N-methyl-1-(tetrahydro-2H-pyran-4-yl)-1,4,6,7-tetrahydro-5H-pyrazolo[4,3-c]pyridine-5-carboxamide], in experiment [1], the inhibition at 0.01 µM is below 20%. Further, the half-maximal inhibitory concentration (IC50) in experiment [2] is 3040 nM.
For `CNC(=O)N1CCc2c(c(N3CCCc4cc(-c5cnn(CC(=O)NCCCNc6ccc7c(c6)C(=O)N(C6CCC(=O)NC6=O)C7=O)c5)c(C(F)F)cc43)nn2C2CCOCC2)C1` (stereo not shown) [P-017, 3-(7-(Difluoromethyl)-6-(1-(2-((3-((2-(2,6-dioxopiperidin-3-yl)-1,3-dioxoisoindolin-5-yl)amino)propyl)amino)-2-oxoethyl)-1H-pyrazol-4-yl)-3,4-dihydroquinolin-1(2H)-yl)-N-methyl-1-(tetrahydro-2H-pyran-4-yl)-1,4,6,7-tetrahydro-5H-pyrazolo[4,3-c]pyridine-5-carboxamide] the same measures were below 20% and 99.2 nM.
On the same counts, the results for `CNC(=O)N1CCc2c(c(N3CCCc4cc(-c5cnn(CC(=O)NCCCCNc6ccc7c(c6)C(=O)N(C6CCC(=O)NC6=O)C7=O)c5)c(C(F)F)cc43)nn2C2CCOCC2)C1` (stereo not shown) [P-018] are 20 to 50% and 59.4 nM.
As for `CNC(=O)N1CCc2c(c(N3CCCc4cc(-c5cnn(CC(=O)NCCCCCNc6ccc7c(c6)C(=O)N(C6CCC(=O)NC6=O)C7=O)c5)c(C(F)F)cc43)nn2C2CCOCC2)C1` (stereo not shown) [P-019], the inhibition at 0.01 µM in experiment [1] lay in the range of 50 to 80%. This compound also came in with an IC50 in experiment [2] of 14.7 nM. Further, the “viability of LNCaP cells” value in experiment [2] (from 10 μM, 12-point 3-fold serial dilution, 3 days (FIG. 4)) is reported as “dose-dependently suppressed viability”.
As for `CNC(=O)N1CCc2c(c(N3CCCc4cc(-c5cnn(CC(=O)NCCCCCCNc6ccc7c(c6)C(=O)N(C6CCC(=O)NC6=O)C7=O)c5)c(C(F)F)cc43)nn2C2CCOCC2)C1` (stereo not shown) [P-020], the inhibition at 0.01 µM in experiment [1] was above 80%. Moreover, in experiment [2], the IC50 worked out at 3.3 nM.
For `CNC(=O)N1CCc2c(c(N3CCCc4cc(-c5cnn(CC(=O)NCCOCCNc6cccc7c6C(=O)N(C6CCC(=O)NC6=O)C7=O)c5)c(C(F)F)cc43)nn2C2CCOCC2)C1` (stereo not shown) [P-021] the same measures were below 20% and 278 nM.
For `CNC(=O)N1CCc2c(c(N3CCCc4cc(-c5cnn(CC(=O)NCCOCCOCCNc6cccc7c6C(=O)N(C6CCC(=O)NC6=O)C7=O)c5)c(C(F)F)cc43)nn2C2CCOCC2)C1` (stereo not shown) [P-022, 3-(7-(Difluoromethyl)-6-(1-(2-((2-(2-(2-((2-(2,6-dioxopiperidin-3-yl)-1,3-dioxoisoindolin-4-yl)amino)ethoxy)ethoxy)ethyl)amino)-2-oxoethyl)-1H-pyrazol-4-yl)-3,4-dihydroquinolin-1(2H)-yl)-N-methyl-1-(tetrahydro-2H-pyran-4-yl)-1,4,6,7-tetrahydro-5H-pyrazolo[4,3-c]pyridine-5-carboxamide] the same measures were below 20% and 389 nM.
On the same counts, the results for `CNC(=O)N1CCc2c(c(N3CCCc4cc(-c5cnn(CC(=O)NCCOCCOCCOCCNc6cccc7c6C(=O)N(C6CCC(=O)NC6=O)C7=O)c5)c(C(F)F)cc43)nn2C2CCOCC2)C1` (stereo not shown) [P-023, 3-(7-(Difluoromethyl)-6-(1-(14-((2-(2,6-dioxopiperidin-3-yl)-1,3-dioxoisoindolin-4-yl)amino)-2-oxo-6,9,12-trioxa-3-azatetradecyl)-1H-pyrazol-4-yl)-3,4-dihydroquinolin-1(2H)-yl)-N-methyl-1-(tetrahydro-2H-pyran-4-yl)-1,4,6,7-tetrahydro-5H-pyrazolo[4,3-c]pyridine-5-carboxamide] are below 20% and 357 nM.
Take `CNC(=O)N1CCc2c(c(N3CCCc4cc(-c5cnn(CC(=O)NCCOCCOCCOCCOCCNc6cccc7c6C(=O)N(C6CCC(=O)NC6=O)C7=O)c5)c(C(F)F)cc43)nn2C2CCOCC2)C1` (stereo not shown) [P-024, 3-(7-(Difluoromethyl)-6-(1-(17-((2-(2,6-dioxopiperidin-3-yl)-1,3-dioxoisoindolin-4-yl)amino)-2-oxo-6,9,12,15-tetraoxa-3-azaheptadecyl)-1H-pyrazol-4-yl)-3,4-dihydroquinolin-1(2H)-yl)-N-methyl-1-(tetrahydro-2H-pyran-4-yl)-1,4,6,7-tetrahydro-5H-pyrazolo[4,3-c]pyridine-5-carboxamide]: in experiment [1], the inhibition at 0.01 µM is below 20%. This compound showed a half-maximal inhibitory concentration (IC50) in experiment [2] of 524 nM.
On the same counts, the results for `CNC(=O)N1CCc2c(c(N3CCCc4cc(-c5cnn(CC(=O)NCCOCCOCCOCCOCCOCCNc6cccc7c6C(=O)N(C6CCC(=O)NC6=O)C7=O)c5)c(C(F)F)cc43)nn2C2CCOCC2)C1` (stereo not shown) [P-025, 3-(7-(Difluoromethyl)-6-(1-(20-((2-(2,6-dioxopiperidin-3-yl)-1,3-dioxoisoindolin-4-yl)amino)-2-oxo-6,9,12,15,18-pentaoxa-3-azaicosyl)-1H-pyrazol-4-yl)-3,4-dihydroquinolin-1(2H)-yl)-N-methyl-1-(tetrahydro-2H-pyran-4-yl)-1,4,6,7-tetrahydro-5H-pyrazolo[4,3-c]pyridine-5-carboxamide] are below 20% and 1250 nM.
For `CNC(=O)N1CCc2c(c(N3CCCc4cc(-c5cnn(CC(=O)NCCCCCCCNc6ccc7c(c6)C(=O)N(C6CCC(=O)NC6=O)C7=O)c5)c(C(F)F)cc43)nn2C2CCOCC2)C1` (stereo not shown) [P-026, 3-(7-(difluoromethyl)-6-(1-(2-((7-((2-(2,6-dioxopiperidin-3-yl)-1,3-dioxoisoindolin-5-yl)amino)heptyl)amino)-2-oxoethyl)-1H-pyrazol-4-yl)-3,4-dihydroquinolin-1(2H)-yl)-N-methyl-1-(tetrahydro-2H-pyran-4-yl)-1,4,6,7-tetrahydro-5H-pyrazolo[4,3-c]pyridine-5-carboxamide] the same measures were above 80% and 3.2 nM.
For `CNC(=O)N1CCc2c(c(N3CCCc4cc(-c5cnn(CC(=O)NCCCCCCCCNc6ccc7c(c6)C(=O)N(C6CCC(=O)NC6=O)C7=O)c5)c(C(F)F)cc43)nn2C2CCOCC2)C1` (stereo not shown) [P-027, 3-(7-(difluoromethyl)-6-(1-(2-((8-((2-(2,6-dioxopiperidin-3-yl)-1,3-dioxoisoindolin-5-yl)amino)octyl)amino)-2-oxoethyl)-1H-pyrazol-4-yl)-3,4-dihydroquinolin-1(2H)-yl)-N-methyl-1-(tetrahydro-2H-pyran-4-yl)-1,4,6,7-tetrahydro-5H-pyrazolo[4,3-c]pyridine-5-carboxamide] the same measures were above 80% and 2.5 nM.
Consider `CNC(=O)N1CCc2c(c(N3CCCc4cc(-c5cnn(CC(=O)NCCOCCNc6ccc7c(c6)C(=O)N(C6CCC(=O)NC6=O)C7=O)c5)c(C(F)F)cc43)nn2C2CCOCC2)C1` (stereo not shown) [P-028, 3-(7-(Difluoromethyl)-6-(1-(2-((2-(2-((2-(2,6-dioxopiperidin-3-yl)-1,3-dioxoisoindolin-5-yl)amino)ethoxy)ethyl)amino)-2-oxoethyl)-1H-pyrazol-4-yl)-3,4-dihydroquinolin-1(2H)-yl)-N-methyl-1-(tetrahydro-2H-pyran-4-yl)-1,4,6,7-tetrahydro-5H-pyrazolo[4,3-c]pyridine-5-carboxamide], for which the inhibition at 0.01 µM in experiment [1] was below 20%. In experiment [2], this compound returned a concentration for half-maximal inhibition (IC50) of 1040 nM.
On the same counts, the results for `CNC(=O)N1CCc2c(c(N3CCCc4cc(-c5cnn(CC(=O)NCCOCCOCCNc6ccc7c(c6)C(=O)N(C6CCC(=O)NC6=O)C7=O)c5)c(C(F)F)cc43)nn2C2CCOCC2)C1` (stereo not shown) [P-029] are below 20% and 578 nM.
For `CNC(=O)N1CCc2c(c(N3CCCc4cc(-c5cnn(CC(=O)NCCOCCOCCOCCNc6ccc7c(c6)C(=O)N(C6CCC(=O)NC6=O)C7=O)c5)c(C(F)F)cc43)nn2C2CCOCC2)C1` (stereo not shown) [P-030, 3-(7-(Difluoromethyl)-6-(1-(14-((2-(2,6-dioxopiperidin-3-yl)-1,3-dioxoisoindolin-5-yl)amino)-2-oxo-6,9,12-trioxa-3-azatetradecyl)-1H-pyrazol-4-yl)-3,4-dihydroquinolin-1(2H)-yl)-N-methyl-1-(tetrahydro-2H-pyran-4-yl)-1,4,6,7-tetrahydro-5H-pyrazolo[4,3-c]pyridine-5-carboxamide], the inhibition at 0.01 µM in experiment [1] was below 20%. The same compound had an IC50 in experiment [2] of 669 nM.
